In patent publication US20250282799A1, “SUBSTITUTED PYRIDO[4,3-d]PYRIMIDINES AS KRAS MODULATORS” (Alterome Therapeutics, Inc., priority 2023, published 2025):

test system: KRAS G12V dependent lung adenocarcinoma cell line, NCI-H441; test: Cellular pERK (Thr202/Tyr204) FRET/HTRF assay; type: cell-based; details: Homo sapiens, NCI-H441, cellular pERK (Thr202/Tyr204) HTRF, NCI-H441 cells
Outline: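 NCI-H441, overnight plating → cpd 1 hr, 37 °C/5% CO2; DMSO neg ctrl. Lyse (phosphatase inhibitors), add donor/acceptor Abs, RT incubation, HTRF read. IC50 by curve fit.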

Row | IC50 | Compound
1 | 0.5 to 10 µM | [2H]C([2H])(Oc1nc(N2CCOC[C@H]3[C@H](F)[C@H]32)c2cnc(-c3cc(N)cc(C)c3C(F)(F)F)c(F)c2n1)[C@@]12CCCN1C[C@H](F)C2 [Example 168, 3-(8-fluoro-4-((1S,7S,8S)-8-fluoro-5-oxa-2-azabicyclo[5.1.0]octan-2-yl)-2-(((2R,7aS)-2-fluorotetrahydro-1H-pyrrolizin-7a(5H)-yl)methoxy-d2)pyrido[4,3-d]pyrimidin-7-yl)-5-methyl-4-(trifluoromethyl)aniline]
2 | 0.05 to 0.5 µM | [2H]C([2H])(Oc1nc(N2CC[C@H](C#N)C[C@H]3[C@@H](F)[C@H]32)c2cnc(-c3cc(N)cc4ccc(F)c(C#C)c34)c(F)c2n1)[C@@]12CCCN1C[C@H](F)C2 [Example 310, (1S,5R,7R,8R)-2-(7-(3-amino-8-ethynyl-7-fluoronaphthalen-1-yl)-8-fluoro-2-(((2R,7aS)-2-fluorotetrahydro-1H-pyrrolizin-7a(5H)-yl)methoxy-d2)pyrido[4,3-d]pyrimidin-4-yl)-8-fluoro-2-azabicyclo[5.1.0]octane-5-carbonitrile]
3 | 0.5 to 10 µM | [2H]C([2H])([2H])Oc1c(F)c(F)c(F)c2cccc(-c3ncc4c(N5CCCC[C@H]6[C@H](F)[C@H]65)nc(OC([2H])([2H])[C@@]56CCCN5C[C@H](F)C6)nc4c3F)c12 [Example 110, 8-fluoro-4-((1S,7R,8S)-8-fluoro-2-azabicyclo[5.1.0]octan-2-yl)-2-(((2R,7aS)-2-fluorotetrahydro-1H-pyrrolizin-7a(5H)-yl)methoxy-d2)-7-(5,6,7-trifluoro-8-(methoxy-d3)naphthalen-1-yl)pyrido[4,3-d]pyrimidine]
4 | 0.05 to 0.5 µM | [2H]C([2H])(Oc1nc(N2CCC(=O)C[C@H]3[C@@H](F)[C@H]32)c2cnc(-c3cc(N)cc4cc(F)c(F)c(C#C)c34)c(F)c2n1)[C@@]12CCCN1C[C@H](F)C2 [Example 197, (1S,7R,8R)-2-(7-(3-amino-8-ethynyl-6,7-difluoronaphthalen-1-yl)-8-fluoro-2-(((2R,7aS)-2-fluorotetrahydro-1H-pyrrolizin-7a(5H)-yl)methoxy-d2)pyrido[4,3-d]pyrimidin-4-yl)-8-fluoro-2-azabicyclo[5.1.0]octan-5-one]
5 | < 0.05 µM | [2H]C([2H])(F)Oc1c(F)ccc2cc(N)cc(-c3ncc4c(N5CCOC[C@H]6[C@H](F)[C@H]65)nc(OC[C@@]56CCCN5C[C@]5(CC5(F)F)C6)nc4c3F)c12 (single isomer, unassigned) [Example 230]
6 | < 0.05 µM | C#Cc1c(F)ccc2cc(N)cc(-c3ncc4c(N5CCOC[C@H]6[C@H](F)[C@H]65)nc(OC[C@@]56CCCN5C/C(=C/F)C6)nc4c3F)c12 [Example 161, 5-Ethynyl-6-fluoro-4-(8-fluoro-4-((1S,7S,8S)-8-fluoro-5-oxa-2-azabicyclo[5.1.0]octan-2-yl)-2-(((S,E)-2-(fluoromethylene)tetrahydro-1H-pyrrolizin-7a(5H)-yl)methoxy)pyrido[4,3-d]pyrimidin-7-yl)naphthalen-2-amine]
7 | < 0.05 µM | [2H]C([2H])(Oc1nc(N2CCOC[C@H]3[C@H](F)[C@H]32)c2cnc(-c3cc(N)cc4ccc(Cl)c(C#C)c34)c(F)c2n1)[C@@]12CCCN1[C@H](C)[C@H](F)C2 [Example 337, 6-chloro-5-ethynyl-4-(8-fluoro-2-(((2R,3R,7aS)-2-fluoro-3-methyltetrahydro-1H-pyrrolizin-7a(5H)-yl)methoxy-d2)-4-((1S,7S,8S)-8-fluoro-5-oxa-2-azabicyclo[5.1.0]octan-2-yl)pyrido[4,3-d]pyrimidin-7-yl)naphthalen-2-amine]
8 | 0.05 to 0.5 µM | [2H]C([2H])(Oc1nc(N2CC[C@@H](C#N)C[C@@H]3[C@@H](F)[C@@H]32)c2cnc(-c3cc(N)cc4ccc(F)c(C#C)c34)c(F)c2n1)[C@@]12CCCN1C[C@H](F)C2 [Example 305, (1R,5S,7S,8R)-2-(7-(3-amino-8-ethynyl-7-fluoronaphthalen-1-yl)-8-fluoro-2-(((2R,7aS)-2-fluorotetrahydro-1H-pyrrolizin-7a(5H)-yl)methoxy-d2)pyrido[4,3-d]pyrimidin-4-yl)-8-fluoro-2-azabicyclo[5.1.0]octane-5-carbonitrile]

More lines, now with the values behind:

Row | Compound | IC50
9 | [2H]C([2H])(F)Oc1c(F)cc(F)c2cc(N)cc(-c3ncc4c(N5CCCC[C@H]6[C@H](F)[C@H]65)nc(OC([2H])([2H])[C@@]56CCCN5C[C@H](F)C6)nc4c3F)c12 [Example 173, 6,8-difluoro-4-(8-fluoro-4-((1S,7R,8S)-8-fluoro-2-azabicyclo[5.1.0]octan-2-yl)-2-(((2R,7aS)-2-fluorotetrahydro-1H-pyrrolizin-7a(5H)-yl)methoxy-d2)pyrido[4,3-d]pyrimidin-7-yl)-5-(fluoromethoxy-d2)naphthalen-2-amine] | < 0.05 µM
10 | C#Cc1c(F)ccc2cc(O)cc(-c3ncc4c(N5CCOC[C@H]6[C@H](F)[C@H]65)nc(OC[C@]56C[C@@H](F)CN5C[C@@H](CN)C6)nc4c3F)c12 [Example 198, 4-(2-(((2R,6R,7aS)-2-(aminomethyl)-6-fluorotetrahydro-1H-pyrrolizin-7a(5H)-yl)methoxy)-8-fluoro-4-((1S,7S,8S)-8-fluoro-5-oxa-2-azabicyclo[5.1.0]octan-2-yl)pyrido[4,3-d]pyrimidin-7-yl)-5-ethynyl-6-fluoronaphthalen-2-ol] | 0.05 to 0.5 µM
11 | Nc1cc(Cl)c(C(F)(F)F)c(-c2ncc3c(N4CCCC[C@H]5[C@H](F)[C@H]54)nc(OC[C@]45C/C(=C\F)CN4CCC54CC4)nc3c2F)c1 [Example 378, 3-chloro-5-(8-fluoro-4-((1S,7R,8S)-8-fluoro-2-azabicyclo[5.1.0]octan-2-yl)-2-(((R,E)-6′-(fluoromethylene)tetrahydrospiro[cyclopropane-1,1′-pyrrolizin]-7a′(5′H)-yl)methoxy)pyrido[4,3-d]pyrimidin-7-yl)-4-(trifluoromethyl)aniline] | 0.05 to 0.5 µM
12 | [2H]C([2H])(Oc1nc(N2CCOC[C@H]3[C@H](F)[C@H]32)c2cc(F)c(-c3cc(N)cc(C)c3C(F)(F)F)c(F)c2n1)[C@@]12CCCN1C[C@H](F)C2 [Example 169, 3-(6,8-difluoro-4-((1S,7S,8S)-8-fluoro-5-oxa-2-azabicyclo[5.1.0]octan-2-yl)-2-(((2R,7aS)-2-fluorotetrahydro-1H-pyrrolizin-7a(5H)-yl)methoxy-d2)quinazolin-7-yl)-5-methyl-4-(trifluoromethyl)aniline] | 0.5 to 10 µM
13 | [2H]C([2H])(F)Oc1c(F)ccc2cccc(-c3ncc4c(N5CCOC[C@H]6[C@H](F)[C@H]65)nc(OC[C@@]56CCCN5CC(=C)C6)nc4c3F)c12 [Example 145, (1S,7S,8S)-8-fluoro-2-(8-fluoro-7-(7-fluoro-8-(fluoromethoxy-d2)naphthalen-1-yl)-2-(((S)-2-methylenetetrahydro-1H-pyrrolizin-7a(5H)-yl)methoxy)pyrido[4,3-d]pyrimidin-4-yl)-5-oxa-2-azabicyclo[5.1.0]octane] | < 0.05 µM

same assay, conditions: Homo sapiens, NCI-H441, cellular pERK HTRF, NCI-H441 (KRAS G12V) cells

Row | IC50 | Compound
14 | < 0.05 µM | [2H]C([2H])(Oc1nc(N2CCOC[C@H]3[C@H](F)[C@H]32)c2cnc(-c3cc(O)cc4ccc(F)c(C#C)c34)c(C)c2n1)[C@]12CC(=C)CN1CCC21CC1 [Example 448, 5-Ethynyl-6-fluoro-4-(4-((1S,7S,8S)-8-fluoro-5-oxa-2-azabicyclo[5.1.0]octan-2-yl)-8-methyl-2-(((R)-6′-methylenetetrahydrospiro[cyclopropane-1,1′-pyrrolizin]-7a′(5′H)-yl)methoxy-d2)pyrido[4,3-d]pyrimidin-7-yl)naphthalen-2-ol]

same assay, conditions: Homo sapiens, NCI-H441, pERK HTRF, NCI-H441 cells (KRAS G12V)

Row | IC50 | Compound
15 | < 0.05 µM | [2H]C([2H])(Oc1nc(N2CCCO[C@H]3[C@H](F)[C@H]32)c2cnc(-c3cccc4ccc(F)c(C#C)c34)c(F)c2n1)[C@@]12CCCN1C[C@H](F)C2 [Example 75, (1R,7S,8R)-6-(7-(8-Ethynyl-7-fluoronaphthalen-1-yl)-8-fluoro-2-(((2R,7aS)-2-fluorotetrahydro-1H-pyrrolizin-7a(5H)-yl)methoxy-d2)pyrido[4,3-d]pyrimidin-4-yl)-8-fluoro-2-oxa-6-azabicyclo[5.1.0]octane]
16 | < 0.05 µM | C#Cc1c(F)ccc2cc(O)cc(-c3ncc4c(N5CCCCC6C5C6(F)F)nc(OC[C@@]56CCCN5C[C@H](F)C6)nc4c3F)c12 (stereo partly drawn) [Example 6, 4-(4-(8,8-Difluoro-2-azabicyclo[5.1.0]octan-2-yl)-8-fluoro-2-(((2R,7aS)-2-fluorotetrahydro-1H-pyrrolizin-7a(5H)-yl)methoxy)pyrido[4,3-d]pyrimidin-7-yl)-5-ethynyl-6-fluoronaphthalen-2-ol]
17 | < 0.05 µM | [2H]C([2H])(Oc1nc(N2CCOC[C@H]3[C@H](F)[C@H]32)c2cnc(-c3cccc4ccc(F)c(C#C)c34)c(F)c2n1)[C@@]12CCCN1C[C@H](F)C2 [Example 45, (1S,7S,8S)-2-(7-(8-Ethynyl-7-fluoronaphthalen-1-yl)-8-fluoro-2-(((2R,7aS)-2-fluorotetrahydro-1H-pyrrolizin-7a(5H)-yl)methoxy-d2)pyrido[4,3-d]pyrimidin-4-yl)-8-fluoro-5-oxa-2-azabicyclo[5.1.0]octane]

same assay, conditions: cellular pERK (Thr202/Tyr204) HTRF, NCI-H441 cells

Row | IC50 | Compound
18 | 0.5 to 10 µM | [2H]C([2H])(Oc1nc(N2CCOC[C@H]3[C@H](F)[C@H]32)c2cc(F)c(-c3cc(N)cc4ccc(F)c(C#C)c34)c(F)c2n1)[C@@]12CCCN1C[C@H](F)C2 (atropisomer, axis not shown; (aS)) [Example 400, 4-((S)-6,8-difluoro-4-((1S,7S,8S)-8-fluoro-5-oxa-2-azabicyclo[5.1.0]octan-2-yl)-2-(((2R,7aS)-2-fluorotetrahydro-1H-pyrrolizin-7a(5H)-yl)methoxy-d2)quinazolin-7-yl)-5-ethynyl-6-fluoronaphthalen-2-amine]
